Test results as given in PMC3914206.

Assays:
Type in all cases: binding
Conditions in all cases: Compound Concentration 10 µM
panel of 442 kinases [1] = target: T1, panel of 442 kinases (Homo sapiens, UniProt Q15418)
T1 construct: purchased KINOMEscan
Excerpt: (§1) We assessed the selectivity of members of this scaffold using the KINOMEscan methodology across a near comprehensive panel of 442 kinases [[18,27]].

panel of 442 kinases [2] = target: T2, panel of 442 kinases (Homo sapiens, UniProt P42345)
T2 construct: purchased KINOMEscan
Excerpt: as §1

panel of 442 kinases [3] = target: T3, panel of 442 kinases (Homo sapiens, UniProt Q9Y2U5)
T3 construct: purchased KINOMEscan
T3 sequence (Q9Y2U5 1-619): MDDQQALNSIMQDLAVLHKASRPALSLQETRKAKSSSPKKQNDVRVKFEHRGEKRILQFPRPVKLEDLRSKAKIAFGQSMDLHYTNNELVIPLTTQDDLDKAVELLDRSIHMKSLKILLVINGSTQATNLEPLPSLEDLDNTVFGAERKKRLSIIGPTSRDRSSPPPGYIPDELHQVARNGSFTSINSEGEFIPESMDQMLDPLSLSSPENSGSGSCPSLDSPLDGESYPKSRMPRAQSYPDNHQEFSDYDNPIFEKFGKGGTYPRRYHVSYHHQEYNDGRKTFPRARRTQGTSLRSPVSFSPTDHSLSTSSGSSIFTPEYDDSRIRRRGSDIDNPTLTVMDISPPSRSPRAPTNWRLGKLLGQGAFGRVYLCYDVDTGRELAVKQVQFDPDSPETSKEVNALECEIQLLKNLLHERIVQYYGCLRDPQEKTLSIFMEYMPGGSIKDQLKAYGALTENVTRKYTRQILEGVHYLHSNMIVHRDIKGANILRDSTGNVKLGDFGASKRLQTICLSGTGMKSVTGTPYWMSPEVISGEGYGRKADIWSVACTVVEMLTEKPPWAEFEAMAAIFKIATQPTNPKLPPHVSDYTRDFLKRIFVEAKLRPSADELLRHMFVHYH
Excerpt: as §1

T1 sequence (Q15418 whole entry): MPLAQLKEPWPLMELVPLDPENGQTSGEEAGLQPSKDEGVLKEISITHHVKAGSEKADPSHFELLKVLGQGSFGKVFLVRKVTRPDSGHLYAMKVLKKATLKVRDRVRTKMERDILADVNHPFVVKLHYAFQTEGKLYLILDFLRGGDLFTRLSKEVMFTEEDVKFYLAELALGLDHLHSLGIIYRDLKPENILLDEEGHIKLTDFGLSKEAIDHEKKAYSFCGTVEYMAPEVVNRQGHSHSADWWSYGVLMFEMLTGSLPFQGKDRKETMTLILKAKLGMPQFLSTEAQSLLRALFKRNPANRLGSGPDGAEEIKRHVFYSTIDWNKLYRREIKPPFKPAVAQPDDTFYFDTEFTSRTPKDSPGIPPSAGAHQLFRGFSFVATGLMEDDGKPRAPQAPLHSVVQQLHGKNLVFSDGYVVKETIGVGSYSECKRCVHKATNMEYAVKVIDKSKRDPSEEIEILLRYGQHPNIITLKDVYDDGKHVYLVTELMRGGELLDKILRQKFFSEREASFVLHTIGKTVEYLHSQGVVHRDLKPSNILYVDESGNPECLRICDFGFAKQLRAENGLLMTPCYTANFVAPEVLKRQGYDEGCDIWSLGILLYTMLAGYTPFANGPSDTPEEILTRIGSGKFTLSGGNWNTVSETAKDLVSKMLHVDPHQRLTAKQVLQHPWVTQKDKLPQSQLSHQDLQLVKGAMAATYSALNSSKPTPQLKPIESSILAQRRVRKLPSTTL

COc1cc(C(=O)N2CCC(N3CCN(C)CC3)CC2)ccc1Nc1ncc2c(n1)N(C1CCCC1)c1ccccc1C(=O)N2C [Compound 25, 11-cyclopentyl-2-((2-methoxy-4-(4-(4-methylpiperazin-1-yl)piperidine-1-carbonyl)phenyl)amino)-5-methyl-5H-benzo[e]pyrimido[5,4-b][1,4]diazepin-6(11H)-one]
KINOMEscan: RSK1(Kin.Dom.1-N-terminal) (panel of 442 kinases [1]): 75
KINOMEscan: RSK1(Kin.Dom.2-C-terminal) (panel of 442 kinases [1]): 63
KINOMEscan: MTOR (panel of 442 kinases [2]): 100
KINOMEscan: MAP3K2 (panel of 442 kinases [3]): 90

COc1cc(C(=O)N2CCC(N3CCN(C)CC3)CC2)ccc1Nc1ncc2c(n1)N1CCc3cccc(c31)C(=O)N2C [Compound 24]
KINOMEscan: RSK1(Kin.Dom.1-N-terminal) (panel of 442 kinases [1]): 71
KINOMEscan: RSK1(Kin.Dom.2-C-terminal) (panel of 442 kinases [1]): 22

COc1cc(C(=O)N2CCC(N3CCN(C)CC3)CC2)ccc1Nc1ncc2c(n1)N(C)c1ccccc1C(=O)N2C [15 (LRRK2-IN-1)]
KINOMEscan: RSK1(Kin.Dom.1-N-terminal) (panel of 442 kinases [1]): 73
KINOMEscan: RSK1(Kin.Dom.2-C-terminal) (panel of 442 kinases [1]): 10
KINOMEscan: MTOR (panel of 442 kinases [2]): 97
KINOMEscan: MAP3K2 (panel of 442 kinases [3]): 97

CCOc1cc(C(=O)N2CCC(N3CCN(C)CC3)CC2)ccc1Nc1ncc2c(n1)N(C1CCCC1)c1ccccc1C(=O)N2C [Compound 26]
KINOMEscan: RSK1(Kin.Dom.1-N-terminal) (panel of 442 kinases [1]): 100
KINOMEscan: RSK1(Kin.Dom.2-C-terminal) (panel of 442 kinases [1]): 88
KINOMEscan: MTOR (panel of 442 kinases [2]): 100
KINOMEscan: MAP3K2 (panel of 442 kinases [3]): 100
